We go through 17 compounds from paper PMC8286840, “Identifying SARS-CoV-2 antiviral compounds by screening for small molecule inhibitors of Nsp3 papain-like protease” (Biochemical Journal, 2021).

Structures are written as SMILES. Like-named read-outs stand apart in the source and are kept apart here.

The target of assay [1] is T1, SARS-CoV-2 PLpro (nsp3 1564–1878) (Severe acute respiratory syndrome coronavirus 2, UniProt P0DTD1). The experiment in a line: biochemical. More on the design: FRET-quenched peptide (Pro3) cleavage by PLpro, 10 min pre-incubation, slope over 20 min, normalised to no-compound control. As to conditions: low concentration screen, read-out: % of control remaining.
Assay [2] concerns the target T1, SARS-CoV-2 PLpro (nsp3 1564–1878). Kind of assay: biochemical. Particulars: high concentration screen, read-out: % of control remaining. More on the design: FRET-quenched peptide (Pro3) cleavage by PLpro, 10 min pre-incubation, slope over 20 min, normalised to no-compound control.

As to `CC(C)C[C@H]1C(=O)O[C@H](Cc2ccc(N3CCOCC3)cc2)C(=O)N(C)[C@@H](CC(C)C)C(=O)O[C@H](C)C(=O)N(C)[C@@H](CC(C)C)C(=O)O[C@H](Cc2ccc(N3CCOCC3)cc2)C(=O)N(C)[C@@H](CC(C)C)C(=O)O[C@H](C)C(=O)N1C` [Emodepside], in assay [1] (Well no.=8506), the remaining activity at 1.25 µM is 100%. Besides, the remaining activity at 3.75 µM in assay [2] (Well no.=8506) came to 100%.
As for `Cc1cc(O)c2c(c1)C(=O)c1cc(O)cc(O)c1C2=O` [Emodin], the remaining activity at 1.25 µM was 98.9% in assay [1] (Well no.=749) and 92% in assay [1] (Well no.=3282). The remaining activity at 3.75 µM stood at 96.3% in assay [2] (Well no.=749) and 93.4% in assay [2] (Well no.=3282).
Take `OC[C@H]1O[C@@H](c2ccc(Cl)c(Cc3ccc(O[C@H]4CCOC4)cc3)c2)[C@H](O)[C@@H](O)[C@@H]1O` [Empagliflozin (BI 10773)]: in assay [1] (Well no.=8724), the remaining activity at 1.25 µM came to 98.6%. In assay [2] (Well no.=8724), the remaining activity at 3.75 µM came to 91.3%.
As to `C[C@H](NC(=O)C(=O)Nc1ccccc1C(C)(C)C)C(=O)N[C@@H](CC(=O)O)C(=O)COc1c(F)c(F)cc(F)c1F` [Emricasan], the remaining activity at 1.25 µM in assay [1] (Well no.=7118) was determined as 95.7%. For the same compound, the remaining activity at 3.75 µM in assay [2] (Well no.=7118) stood at 95.9%.
In the case of `Nc1nc(=O)n([C@@H]2CS[C@H](CO)O2)cc1F` [Emtricitabine], the remaining activity at 1.25 µM in assay [1] (Well no.=1733) came to 100%. Moreover, the remaining activity at 3.75 µM in assay [2] (Well no.=1733) was 100%.
On to `CCOC(=O)[C@H](CCc1ccccc1)N[C@@H](C)C(=O)N1CCC[C@H]1C(=O)O` [Enalapril (maleate)], for which the remaining activity at 1.25 µM in assay [1] (Well no.=7638) came to 93.9%. Further, the remaining activity at 3.75 µM in assay [2] (Well no.=7638) turned out to be 94.6%.
Consider `CCOC(=O)[C@H](CCc1ccccc1)N[C@@H](C)C(=O)N1CCC[C@H]1C(=O)O` [Enalapril], for which the remaining activity at 1.25 µM in assay [1] (Well no.=2024) was determined as 93.5%. In addition, the remaining activity at 3.75 µM in assay [2] (Well no.=2024) is 102%.
As to `C[C@H](N[C@@H](CCc1ccccc1)C(=O)O)C(=O)N1CCC[C@H]1C(=O)O` [Enalaprilat (dihydrate)], in assay [1] (Well no.=7842), the remaining activity at 1.25 µM worked out at 94.7%. Besides, the remaining activity at 3.75 µM in assay [2] (Well no.=7842) was determined as 97.1%.
Turning to `C[C@H](N[C@@H](CCc1ccccc1)C(=O)O)C(=O)N1CCC[C@H]1C(=O)O` [Enalaprilat Dihydrate], the remaining activity at 1.25 µM in assay [1] (Well no.=8094) is 96.7%. Besides, the remaining activity at 3.75 µM in assay [2] (Well no.=8094) came to 98.4%.
For `C[C@H](N[C@@H](CCc1ccccc1)C(=O)O)C(=O)N1CCC[C@H]1C(=O)O` [Enalaprilat], the remaining activity at 1.25 µM in assay [1] (Well no.=1900) came to 95.1%; in assay [1] (Well no.=5968), 99.8%. The remaining activity at 3.75 µM in assay [2] (Well no.=1900) was 93.8%; in assay [2] (Well no.=5968), 98.2%.
Consider `CCCCCCCCCCCCCCCCOCC(COP(=O)([O-])OCC[N+](C)(C)C)OC(C)=O` (stereo not drawn) [Enantio-PAF C16], for which, in assay [1] (Well no.=4455), the remaining activity at 1.25 µM was 98.4%. Further, the remaining activity at 3.75 µM in assay [2] (Well no.=4455) stood at 100%.
For the compound `CC(C)(O)CNc1nc(Nc2ccnc(C(F)(F)F)c2)nc(-c2cccc(C(F)(F)F)n2)n1` [Enasidenib (AG-221)], in assay [1] (Well no.=8582), the remaining activity at 1.25 µM turned out to be 101%. In addition, the remaining activity at 3.75 µM in assay [2] (Well no.=8582) worked out at 101%.
For the compound `NC(=O)[C@H](Cc1ccccc1)NC(=O)[C@H](Cc1c[nH]c2ccccc12)NC(=O)[C@@H]1CCCN1C(=O)[C@@H](N)Cc1ccc(O)cc1` [Endomorphin 1], in assay [1] (Well no.=7901), the remaining activity at 1.25 µM turned out to be 102%. In addition, the remaining activity at 3.75 µM in assay [2] (Well no.=7901) stood at 97.8%.
For the compound `O=C(O)[C@@H]1[C@H](C(=O)O)[C@H]2CC[C@@H]1O2` [Endothall], in assay [1] (Well no.=701), the remaining activity at 1.25 µM was found to be 97.9%. Besides, the remaining activity at 3.75 µM in assay [2] (Well no.=701) stood at 97.8%.
Take `CCn1cc(C(=O)O)c(=O)c2cc(F)c(N3CCNCC3)nc21` [Enoxacin]: the remaining activity at 1.25 µM in assay [1] (Well no.=2026) is 103%. In addition, in assay [2] (Well no.=2026), the remaining activity at 3.75 µM was 106%.
For the compound `CSc1ccc(C(=O)c2[nH]c(=O)[nH]c2C)cc1` [Enoximone], the remaining activity at 1.25 µM in assay [1] (Well no.=406) was determined as 103%. For the same compound, the remaining activity at 3.75 µM in assay [2] (Well no.=406) was 102%.
`CCN1CCN(c2cc3c(cc2F)c(=O)c(C(=O)O)cn3C2CC2)CC1` [Enrofloxacin]: in assay [1] (Well no.=2028), the remaining activity at 1.25 µM turned out to be 104%. Besides, in assay [2] (Well no.=2028), the remaining activity at 3.75 µM worked out at 104%.
